The record followed here is patent US20100292205A1, “Pyrimidone Compounds As GSK-3 Inhibitors” (PFIZER INC., priority 2006, published 2010).

SMILES strings stand for the structures.

The target of the first experiment is T1, Recombinant human GSK3β (Homo sapiens, UniProt P49841).
T1 construct: His-tag; made in house; host or cells: Sf9 insect cells / baculovirus
T1 sequence (P49841 whole entry): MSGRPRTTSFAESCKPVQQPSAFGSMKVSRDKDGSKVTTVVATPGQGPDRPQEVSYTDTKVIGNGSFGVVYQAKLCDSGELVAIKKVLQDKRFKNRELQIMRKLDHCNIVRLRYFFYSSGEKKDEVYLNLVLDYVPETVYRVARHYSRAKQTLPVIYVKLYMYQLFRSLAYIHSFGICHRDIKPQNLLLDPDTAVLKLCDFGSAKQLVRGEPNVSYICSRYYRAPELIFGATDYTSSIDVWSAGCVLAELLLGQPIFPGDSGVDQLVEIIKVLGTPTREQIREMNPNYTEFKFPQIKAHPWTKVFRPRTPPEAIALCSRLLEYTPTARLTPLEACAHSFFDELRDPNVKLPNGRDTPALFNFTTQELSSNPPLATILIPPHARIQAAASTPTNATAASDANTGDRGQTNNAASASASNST
The experiment in a line: GSK-3β (Glycogen Synthase Kinase) cell free enzyme assay. It is filed as biochemical. Conditions: 1 μM; Examples 157-199; read-out: Percent inhibition at 1 μM. An outline of the steps: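 Recombinant human GSK3β, expressed in SF9/baculovirus cells and His-tag purified on Ni-NTA Superflow, was preincubated with test agent for 30 minutes at room temperature. Substrate mix was then added to start the reaction in 8 mM MOPS (pH 7.0), 10 mM magnesium acetate, 0.2 mM EDTA, 1 mM DTT, 2 uM cold ATP, 0.025 uCi/well [33P]ATP (120 uL) and 1.0 uM biotinylated peptide. Reactions ran at RT for 60 min.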
The inhibition is the drop in the measured response relative to a control, in per cent. As for `CCN(c1nc(-c2ccncc2)cc(=O)n1C)C1CCN(S(C)(=O)=O)CC1` [Example 165, 2-{Ethyl[1-(methylsulfonyl)piperidin-4-yl]amino}-3-methyl-6-pyridin-4-ylpyrimidin-4(3H)-one], the inhibition at 1 µM came out at 80%.
Same read-out and setting: as for `Cn1c(N2CC[C@@H]3CN(S(=O)(=O)c4ccccc4)C[C@@H]32)nc(-c2ccncc2)cc1=O` [Example 172, 3-Methyl-2-[(3a,R6,aR)-5-(phenylsulfonyl)hexahydro-pyrrolo[34-b]pyrrol-1(2H)-yl]-6-pyridin-4-ylpyrimidin-4(3H)-one], the figure is 81%; as for `Cn1c(N[C@H]2[C@@H]3CN(S(C)(=O)=O)C[C@@H]32)nc(-c2ccncc2)cc1=O` [Example 157, 3-Methyl-2-{[(1R,5S,6s)-3-(methylsulfonyl)-3-azabicyclo[3.1.0]hex-6-yl]amino}-6-pyridin-4-ylpyrimidin-4(3H)-one], 61%.

The experiment is the same for the next values; noted with them: 1 μM; Examples 201-221.
As for `COC(=O)N1CCCC(N(C)c2nc(-c3ccncc3)cc(=O)n2C)CC1` (stereo not drawn) [Example 214, Methyl 4-[methyl(1-methyl-6-oxo-4-pyridin-4-yl-16-dihydropyrimidin-2-yl)amino]azepane-1-carboxylate], the “Percent inhibition at 1 μM” value is 99%.

The experiment is the same for the next values; noted with them: 1 μM; Examples 201-221; read-out: Percent inhibition at 1 μM.
With `COC(=O)N1CCC(Nc2nc(-c3ccncc3)cc(=O)n2C)CC1` [Example 208, Methyl 4-[(1-methyl-6-oxo-4-pyridin-4-yl-16-dihydropyrimidin-2-yl)amino]piperidine-1-carboxylate], the inhibition at 1 µM is 77%.
Still for that read-out and setting: as for `COC(=O)N1CCCC(Nc2nc(-c3ccncc3)cc(=O)n2C)C1` (stereo not drawn) [Example 210, Methyl 3-[(1-methyl-6-oxo-4-pyridin-4-yl-16-dihydropyrimidin-2-yl)amino]piperidine-1-carboxylate], the figure is 99%; as for `COC(=O)N1CCC(Nc2nc(-c3ccncc3)cc(=O)n2C)C1` (stereo not drawn) [Example 204, Methyl 3-[(1-methyl-6-oxo-4-pyridin-4-yl-16-dihydropyrimidin-2-yl)amino]pyrrolidine-1-carboxylate], 82%; as for `COC(=O)N1CCC[C@H]1CNc1nc(-c2ccncc2)cc(=O)n1C` [Example 218, Methyl (2S)-2-{[(1-methyl-6-oxo-4-pyridin-4-yl-16-dihydropyrimidin-2-yl)amino]methyl}pyrrolidine-1-carboxylate], 68%.

The same experiment, now with this note: 1 μM; Examples 236-262; read-out: Percent inhibition at 1 μM.
With `CN1C[C@H](F)[C@H](Nc2nc(-c3ccncc3)cc(=O)n2C)C1` [Example 246, 2-{[(3R,4S)-4-Fluoro-1-methylpyrrolidin-3-yl]amino}-3-methyl-6-pyridin-4-ylpyrimidin-4(3H)-one], the inhibition at 1 µM turned out to be 67%.
Still for that read-out and setting: as for `Cn1c(NC2CCN(Cc3ccccc3)C2)nc(-c2ccncc2)cc1=O` (stereo not drawn) [Example 236, 2-[(1-Benzylpyrrolidin-3-yl)amino]-3-methyl-6-pyridin-4-ylpyrimidin-4(3H)-one], the figure is 63%; as for `CN1CCC(Nc2nc(-c3ccncc3)cc(=O)n2C)C1` (stereo not drawn) [Example 240, 3-Methyl-2-[(1-methylpyrrolidin-3-yl)amino]-6-pyridin-4-ylpyrimidin-4(3H)-one], 49%.

The experiment is the same for the next values; noted with them: cell free enzyme assay; Examples 1-35.
In general, IC50 refers to the concentration needed to halve the response being measured. Take `Cn1c(NCC2CCCN2C(=O)OC(C)(C)C)nc(-c2ccncc2)cc1=O` (stereo not drawn) [Example 18, tert-butyl 2-{[(1-Methyl-6-oxo-4-pyridin-4-yl-1,6-dihydropyrimidin-2-yl)amino]methyl} pyrrolidine-1-carboxylate]: the half-inhibitory concentration (IC50) was determined as 108 nM.
The same measure, in the same setting: the figure for `Cn1c(N2CC[C@@](O)(c3ccccc3)[C@H]3CCCC[C@H]32)nc(-c2ccncc2)cc1=O` [Example 1, 2-[(4S,4aS,8aR)-4-Hydroxy-4-phenyloctahydro-quinolin-1(2H)-yl]-3-methyl-6-pyridin-4-ylpyrimidin-4(3H)-one] is 0.7 nM; for `CCN(C[C@@H]1CCCN1C(=O)OC(C)(C)C)c1nc(-c2ccncc2)cc(=O)n1C` [Example 4, tert-butyl (2S)-2-{[Ethyl(1-methyl-6-oxo-4-pyridin-4-yl-1,6-dihydropyrimidin-2-yl)amino]methyl} pyrrolidine-1-carboxylate] it is 4.2 nM; for `Cn1c(NCCn2c(=O)ccc3ccccc32)nc(-c2ccncc2)cc1=O` [Example 30, 1-{2-[(1-Methyl-6-oxo-4-pyridin-4-yl-1,6-dihydropyrimidin-2-yl)amino]ethyl} quinolin-2(1H)-one] it is 25 nM.
The same measure, in the same setting: as for `Cn1c(NC[C@H]2CCN(C(=O)OC(C)(C)C)C2)nc(-c2ccncc2)cc1=O` [Example 14, tert-butyl (3R)-3-{[(1-Methyl-6-oxo-4-pyridin-4-yl-1,6-dihydropyrimidin-2-yl)amino]methyl} pyrrolidine-1-carboxylate], the figure is 74 nM; as for `CCN(C[C@H]1CCCN1C(=O)OC(C)(C)C)c1nc(-c2ccncc2)cc(=O)n1C` [Example 5, tert-butyl (2R)-2-{[Ethyl(1-methyl-6-oxo-4-pyridin-4-yl-1,6-dihydropyrimidin-2-yl)amino]methyl} pyrrolidine-1-carboxylate], 2.1 nM.

The experiment is the same for the next values; noted with them: cell free enzyme assay; Examples 62-155.
`Cc1ccc(C(=O)N2C[C@@H]3[C@H](C2)[C@H]3N(C)c2nc(-c3ccncc3F)cc(=O)n2C)cc1F` [Example 133, 2-{[(1R,5S,6s)-3-(3-Fluoro-4-methylbenzoyl)-3-azabicyclo[3.1.0]hex-6-yl](methyl)amino}-6-(3-fluoropyridin-4-yl)-3-methylpyrimidin-4(3H)-one]: the half-maximal inhibitory concentration (IC50) is 2.91 nM.
On to `COc1cccc(CC(=O)N2C[C@@H]3[C@H](C2)[C@H]3N(C)c2nc(-c3ccncc3F)cc(=O)n2C)c1` [Example 101, 6-(3-Fluoropyridin-4-yl)-2-[{(1R,5S,6s)-3-[(3-methoxyphenyl)acetyl]-3-azabicyclo[3.1.0]hex-6-yl}(methyl)amino]-3-methylpyrimidin-4(3H)-one], for which the IC50 worked out at 13.6 nM.
`CCC(CC)C(=O)N1C[C@@H]2[C@H](C1)[C@H]2N(C)c1nc(-c2ccncc2F)cc(=O)n1C` [Example 127, 2-{[(1R,5S,6s)-3-(2-Ethylbutanoyl)-3-azabicyclo[3.1.0]hex-6-yl](methyl)amino}-6-(3-fluoropyridin-4-yl)-3-methylpyrimidin-4(3H)-one]: the IC50 was 4.41 nM.
Consider `Cn1c(NC2CCN(C(=O)Cc3ccccc3)C2)nc(-c2ccncc2)cc1=O` (stereo not drawn) [Example 81, 3-Methyl-2-{[1-(phenylacetyl)pyrrolidin-3-yl]amino}-6-pyridin-4-ylpyrimidin-4(3H)-one], for which the concentration for half-maximal inhibition (IC50) is 111 nM.
Same read-out and setting: the figure for `CN(c1nc(-c2ccncc2F)cc(=O)n1C)[C@H]1[C@@H]2CN(C(=O)c3cc(F)cc(F)c3)C[C@@H]21` [Example 144, 2-{[(1R,5S,6s)-3-(3,5-Difluorobenzoyl)-3-azabicyclo[3.1.0]hex-6-yl](methyl)amino}-6-(3-fluoropyridin-4-yl)-3-methylpyrimidin-4(3H)-one] is 4.09 nM; for `CN(c1nc(-c2ccncc2)cc(=O)n1C)C1CCN(C(=O)Cc2ccccc2)C1` (stereo not drawn) [Example 90, 3-Methyl-2-{methyl[1-(phenylacetyl)pyrrolidin-3-yl]amino}-6-pyridin-4-ylpyrimidin-4(3H)-one] it is 133 nM.
Regarding `CN(c1nc(-c2ccncc2F)cc(=O)n1C)[C@H]1[C@@H]2CN(C(=O)C3CC=CCC3)C[C@@H]21` (stereo partly drawn) [Example 140, 2-{[(1R,5S,6s)-3-(Cyclohex-3-en-1-ylcarbonyl)-3-azabicyclo[3.1.0]hex-6-yl](methyl)amino}-6-(3-fluoropyridin-4-yl)-3-methylpyrimidin-4(3H)-one], the half-inhibitory concentration (IC50) came to 8.72 nM.
On the same count and under the same terms, the figure for `Cn1c(N[C@H]2CN(C(=O)Cc3ccccc3)C[C@@H]2F)nc(-c2ccncc2)cc1=O` [Example 83, 2-{[(3S,4S)-4-Fluoro-1-(phenylacetyl)pyrrolidin-3-yl]amino}-3-methyl-6-pyridin-4-ylpyrimidin-4(3H)-one] is 39 nM; for `CN(c1nc(-c2ccncc2F)cc(=O)n1C)[C@H]1[C@@H]2CN(C(=O)c3cc(Cl)sc3Cl)C[C@@H]21` [Example 141, 2-[{(1R,5S,6s)-3-[(2,5-Dichloro-3-thienyl)carbonyl]-3-azabicyclo[3.1.0]hex-6-yl}(methyl)amino]-6-(3-fluoropyridin-4-yl)-3-methylpyrimidin-4(3H)-one] it is 1.04 nM.

Staying with this experiment, now noted: cell free enzyme assay; Examples 265-291.
As to `CN(c1nc(-c2ccncc2F)cc(=O)n1C)[C@H]1[C@@H]2CN(c3nnnn3-c3ccccc3F)C[C@@H]21` [Example 275, 2-[{(1R,5S,6s)-3-[1-(2-Fluorophenyl)-1H-tetrazol-5-yl]-3-azabicyclo[3.1.0]hex-6-yl}(methyl)amino]-6-(3-fluoropyridin-4-yl)-3-methylpyrimidin-4(3H)-one], the IC50 amounted to 1.12 nM.
The same measure, in the same setting: as for `CN(c1nc(-c2ccncc2F)cc(=O)n1C)[C@H]1[C@@H]2CN(c3nnnn3C)C[C@@H]21` [Example 279, 6-(3-Fluoropyridin-4-yl)-3-methyl-2-{methyl[(1R,5S,6s)-3-(1-methyl-1H-tetrazol-5-yl)-3-azabicyclo[3.1.0]hex-6-yl]amino}pyrimidin-4(3H)-one], the figure is 58.6 nM.
The same measure, in the same setting: the figure for `CN(c1nc(-c2ccncc2F)cc(=O)n1C)[C@H]1[C@@H]2CN(c3nnnn3Cc3cccc(OC(F)(F)F)c3)C[C@@H]21` [Example 290, 6-(3-Fluoropyridin-4-yl)-3-methyl-2-{methyl[(1R,5S,6s)-3-{1-[3-(trifluoromethoxy)benzyl]-1H-tetrazol-5-yl}-3-azabicyclo[3.1.0]hex-6-yl]amino}pyrimidin-4(3H)-one] is 27.7 nM.
Still for that read-out and setting: as for `COc1ccc2oc(N3C[C@@H]4[C@H](C3)[C@H]4N(C)c3nc(-c4ccncc4F)cc(=O)n3C)nc2c1` [Example 267, 6-(3-Fluoropyridin-4-yl)-2-{[(1R,5S,6s)-3-(5-methoxy-1,3-benzoxazol-2-yl)-3-azabicyclo[3.1.0]hex-6-yl](methyl)amino}-3-methylpyrimidin-4(3H)-one], the figure is 14.2 nM.
